Values after ≈ are worked out from the molar mass of the structure shown.
Columns and labels:
[1] = test system: human red blood cells (hRBCs); assay: Hemolysis assay; assay type: cell-based; settings: positive control, 2 h at 37 °C
C. albicans (ATCC 10231) [2] = assay: Microdilution MIC90, strain A; assay type: cell-based
C. krusei (ATCC 6258) = assay: Microdilution MIC90, strain B; assay type: cell-based; settings: 24 h, yeast, 24 h at 37 °C, triplicate
C. glabrata (ATCC 90030) = assay: Microdilution MIC90, strain C; assay type: cell-based; settings: yeast, 24 h at 37 °C, triplicate
[3] = test system: C. parapsilosis (ATCC 22019); assay: Microdilution MIC90, strain D; assay type: cell-based; settings: 24 h
[4] = test system: C. tropicalis (PTCC 5028); assay: Microdilution MIC90, strain E; assay type: cell-based; settings: 24 h
[5] = test system: Asp. nidulans (PTCC 5014); assay: Microdilution MIC90, strain F; assay type: cell-based, Aspergillus nidulans; settings: filamentous fungi, 48 h at 37 °C, triplicate
[6] = test system: Asp. flavus (ATCC 204304); assay: Microdilution MIC90, strain G; assay type: cell-based, Aspergillus flavus; settings: filamentous fungi, 48 h at 37 °C, triplicate
[7] = test system: Asp. fumigatus (PTCC 5009); assay: Microdilution MIC90, strain H; assay type: cell-based; settings: Aspergillus fumigatus, PTCC5009, 48 h, filamentous fungi, 48 h at 37 °C, triplicate
Asp. niger (PTCC 5154) = assay: Microdilution MIC90, strain I; assay type: cell-based, Aspergillus niger; settings: Aspergillus niger, PTCC5154, 48 h, filamentous fungi, 48 h at 37 °C, triplicate
Asp. terreus (PTCC 5023) = assay: Microdilution MIC90, strain J; assay type: cell-based, Aspergillus terreus; settings: Aspergillus terreus, PTCC5023, 48 h, filamentous fungi, 48 h at 37 °C, triplicate
T. rubrum (PTCC 5143) = assay: Microdilution MIC90, strain K; assay type: cell-based, Trichophyton rubrum; settings: filamentous fungi, 48 h at 37 °C, triplicate
[8] = test system: Microsporum gypseum (PTCC 5070); assay: Microdilution MIC90, strain L; assay type: cell-based; settings: filamentous fungi, 48 h at 37 °C, triplicate
[9] = test system: T. mentagrophytes (PTCC 5054); assay: Microdilution MIC90, strain M; assay type: cell-based; settings: Trichophyton mentagrophytes, PTCC5054, 48 h
[10] = test system: T. schoenleinii (PTCC 5221); assay: Microdilution MIC90, strain N; assay type: cell-based; settings: Trichophyton schoenleinii, PTCC5221, 48 h
M. canis (PTCC 5069) = assay: Microdilution MIC90, strain O; assay type: cell-based; settings: Microsporum canis, PTCC5069, 48 h
C. albicans (ATCC 10231) [11] = assay: Membrane permeabilization assay; assay type: cell-based; settings: 8b, 8c at 1 × MIC, 2 × MIC, 4 × MIC (0.5, 1, 2 μg/mL); AMB 1 μg/mL; 3 h at 28 °C
[12] = Aspergillus nidulans, PTCC5014, 48 h
[13] = Aspergillus flavus, ATCC204304, 48 h
[14] = Trichophyton rubrum, PTCC5143, 48 h

MIC90 (C. krusei (ATCC 6258)) [µg/mL]	MIC90 (C. glabrata (ATCC 90030); 24 h) [µg/mL]	MIC90 [3] [µg/mL]	MIC90 [4] [µg/mL]	MIC90 [5, 12] [µg/mL]	MIC90 [6, 13] [µg/mL]	MIC90 [7] [µg/mL]	MIC90 (Asp. niger (PTCC 5154)) [µg/mL]	MIC90 (Asp. terreus (PTCC 5023)) [µg/mL]	MIC90 (T. rubrum (PTCC 5143); [14]) [µg/mL]	MIC90 [8] [μg·mL^–1]	MIC90 [9] [µg/mL]	MIC90 [10] [µg/mL]	MIC90 (M. canis (PTCC 5069)) [µg/mL]	Compound	other results
–	–	–	–	–	–	–	–	–	–	–	–	–	–	Triton X-100 [reference compound]	hemolysis [1]: 86.2%
2 (≈ 3.94 µM)	1 to 16 (≈ 1.97 to 31.5 µM)	0.5 (≈ 0.985 µM)	16 (≈ 31.5 µM)	8 (≈ 15.8 µM)	2 to 4 (≈ 3.94 to 7.88 µM)	16 (≈ 31.5 µM)	16 (≈ 31.5 µM)	32 (≈ 63.1 µM)	4 (≈ 7.88 µM)	4	16 (≈ 31.5 µM)	8 (≈ 15.8 µM)	8 (≈ 15.8 µM)	O=C(Nc1cccc(F)c1)Nc1nnc(SCC(O)(Cn2cncn2)c2ccc(F)cc2F)s1 (stereo not drawn) [Compound 8g, 1-(5-((2-(2,4-Difluorophenyl)-2-hydroxy-3-(1H-1,2,4-triazol-1-yl)propyl)thio)-1,3,4-thiadiazol-2-yl)-3-(3-fluorophenyl)urea]	MIC90 (C. albicans (ATCC 10231) [2]; 24 h, strain A, yeast, 24 h at 37 °C, triplicate): 2 µg/mL (≈ 3.94 µM); MIC90 (C. glabrata (ATCC 90030)): 1 μg·mL^–1; MIC90 [6]: 4 μg·mL^–1
–	–	–	–	–	–	–	–	–	–	–	–	–	–	C[C@@H]1[C@H](O)[C@@H](C)/C=C/C=C/C=C/C=C/C=C/C=C/C=C/[C@H](O[C@@H]2O[C@H](C)[C@@H](O)[C@H](N)[C@@H]2O)C[C@@H]2O[C@](O)(C[C@@H](O)C[C@@H](O)[C@H](O)CC[C@@H](O)C[C@@H](O)CC(=O)O[C@H]1C)C[C@H](O)[C@H]2C(=O)O [AMB, amphotericin B, reference compound]	MIC (C. albicans (ATCC 10231) [2]; Candida albicans, ATCC10231): 1 µg/mL (≈ 1.08 µM); cellular uptake of the PI dye (C. albicans (ATCC 10231) [11]): increased the PI dye uptake
32 (≈ 65.4 µM)	32 (≈ 65.4 µM)	8 (≈ 16.3 µM)	16 (≈ 32.7 µM)	2 to 4 (≈ 4.09 to 8.17 µM)	8 (≈ 16.3 µM)	32 (≈ 65.4 µM)	32 (≈ 65.4 µM)	8 (≈ 16.3 µM)	2 to 4 (≈ 4.09 to 8.17 µM)	4	16 (≈ 32.7 µM)	16 (≈ 32.7 µM)	16 (≈ 32.7 µM)	O=C(Nc1ccccc1)Nc1nnc(SCC(O)(Cn2cncn2)c2ccc(F)cc2F)s1 (stereo not drawn) [Compound 8o, 1-(5-((2-(2,4-Difluorophenyl)-2-hydroxy-3-(1H-1,2,4-triazol-1-yl)propyl)thio)-1,3,4-thiadiazol-2-yl)-3-phenylurea]	MIC90 [5]: 2 μg·mL^–1; MIC90 (T. rubrum (PTCC 5143)): 4 μg·mL^–1
